Biological target: Mitogen Activated Protein Kinase (Mek-Erk) (Homo sapiens, UniProt P28482+Q02750)
Test: Mitogen Activated Protein Kinase (MAPK) two component coupled test procedure
Assay type: biochemical
Protocol: To evaluate inhibitors of the MAP (mitogen activated protein) kinase a two component coupled standard pharmacological test procedure, which measures phosphorylation of a serine/threonine residue in an appropriate sequence in the substrate in the presence and absence of a putative inhibitor, is used. Recombinant human MEK 1 (MAPKK) is first used to activate recombinant human ERK2 (MAPK) and the activated MAPK (ERK) is incubated with substrate (myelin basic protein peptide (MBPP) or Myc peptide) in the presence of ATP, Mg^+2 and radiolabeled ^33P ATP. The phosphorylated peptide is captured on a P 81 phosphocellulose filter (paper filter or embedded in microtiter plate) washed and counted by scintillation methods.
The peptide substrates used in the assay are MBPP, peptide substrate ([sequence]), or synthetic Myc substrate, ([sequence]•5 TFA). The recombinant enzymes used are prepared as GST fusion proteins of human ERK 2 and human MEK 1. […]
The reaction is run as follows in 50 mM Tris kinase buffer, pH 7.4 in a reaction volume of 50 ul. […] The filters are briefly air dried before addition of scintillant and samples are counted in the appropriate scintillation counter set up for reading ^33P isotope.
The raw data is captured as cpm. […] Mean cpm data is tabulated by group and % inhibition by a test compound is calculated as (corrected cpm control-corrected. cpm sample/control) X 100 = % inhibition).

Chain of Mitogen Activated Protein Kinase (Mek-Erk) (Q02750 whole entry): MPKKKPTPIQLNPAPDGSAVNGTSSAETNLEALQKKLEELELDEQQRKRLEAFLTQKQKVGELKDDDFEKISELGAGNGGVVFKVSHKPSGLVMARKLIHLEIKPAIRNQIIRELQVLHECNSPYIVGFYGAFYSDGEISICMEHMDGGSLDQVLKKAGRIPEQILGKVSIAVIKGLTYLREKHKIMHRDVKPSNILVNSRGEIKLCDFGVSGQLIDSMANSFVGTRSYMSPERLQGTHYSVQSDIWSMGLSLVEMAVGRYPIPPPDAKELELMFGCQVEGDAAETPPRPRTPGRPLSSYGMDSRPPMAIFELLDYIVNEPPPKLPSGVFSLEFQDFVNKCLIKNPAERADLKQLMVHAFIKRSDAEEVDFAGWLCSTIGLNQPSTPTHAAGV
Chain of Mitogen Activated Protein Kinase (Mek-Erk) (P28482 2-360): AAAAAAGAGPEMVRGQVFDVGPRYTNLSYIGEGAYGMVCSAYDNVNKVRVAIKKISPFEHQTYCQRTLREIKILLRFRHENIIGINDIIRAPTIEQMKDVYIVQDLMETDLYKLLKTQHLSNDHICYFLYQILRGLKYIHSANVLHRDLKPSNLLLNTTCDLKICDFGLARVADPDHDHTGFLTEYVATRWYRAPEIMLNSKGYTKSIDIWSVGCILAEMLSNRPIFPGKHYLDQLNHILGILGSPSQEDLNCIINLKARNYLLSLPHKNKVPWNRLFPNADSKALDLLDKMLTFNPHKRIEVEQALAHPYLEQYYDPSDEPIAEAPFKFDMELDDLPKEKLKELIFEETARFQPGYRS

SMILES	IC50
N#Cc1cnc2cc3c(cc2c1Nc1ccc(Oc2ccccc2)cc1)ncn3CCN1CCOCC1 [Example 58, 3-[2-(4-Morpholinyl)ethyl]-8-(4-phenoxyanilino)-3H-imidazo[4,5-g]quinoline-7-carbonitrile]	> 10 µM
N#Cc1cnc2c(oc3ccccc32)c1Nc1ccc(Oc2ccccc2)cc1 [Example 88, 4-(4-Phenoxyphenylamino)benzo[4,5]furo[3,2-b]pyridine-3-carbonitrile]	> 100 µM
